Target: T1, human PF4 (Homo sapiens, UniProt P02776)
T1 construct: PF4 is a 70 amino acid, lysine-rich 7.8 kDa platelet-specific protein; made in house; host or cells: Escherichia coli BL21DE3 pLysS (pT7-7) and/or Drosophila S2 cells
T1 sequence (P02776 32-101): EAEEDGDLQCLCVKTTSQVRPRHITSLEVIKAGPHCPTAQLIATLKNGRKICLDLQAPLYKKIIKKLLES
Experiment: Inhibition of PF4 tetramer formation (BS3 cross-linking, SDS-PAGE)
Type: biochemical
Settings: for inhibition at 1 µM: 1 μM inhibitor; for inhibition at 1 µM / inhibition at 3 µM / inhibition at 5 µM / inhibition at 10 µM: read-out: % inhibition of PF4 tetramer formation at single concentration of inhibitor; for inhibition at 3 µM: 3 μM inhibitor (column A); for IC50: read-out: IC50 of PF4 tetramer formation inhibition; for inhibition at 5 µM: 5 μM inhibitor; for inhibition at 10 µM: 10 μM inhibitor (column A)
Method in brief: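 Recombinant human wild-type PF4 (E. coli-expressed, heparin-purified), 10 μg/ml in PBS, incubated with compound 15 min at 37° C or 60 min at room temperature, then cross-linked with 0.2 mM BS3 for 30 min at room temperature. Reducing 12% SDS-PAGE; bands quantified as % tetramer, trimer, dimer, monomer versus compound-free control.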

With `CC(C)C[C@@H](N)C(=O)C1C(=O)c2ccc(C(=O)c3ccc4c(c3)C(=O)C(C(=O)[C@H](N)CC(C)C)C4=O)cc2C1=O` (stereo partly drawn) [Example 354, 2-[(2R)-2-amino-4-methylpentanoyl]-5-{2-[(2R)-2-amino-4-methylpentanoyl]-1,3-dioxo-2,3-dihydro-1H-indene-5-carbonyl}-2,3-dihydro-1H-indene-1,3-dione] the inhibition at 1 µM was 26% and the inhibition at 3 µM was 32%.

Compound `CN(CC(=O)C1C(=O)c2ccc(C#Cc3ccc4c(c3)C(=O)C(C(=O)CN(C)C(=O)OC(C)(C)C)C4=O)cc2C1=O)C(=O)OC(C)(C)C` (stereo not drawn) [Example 320, tert-butyl N-[2-(5-{2-[2-(2-{[(tert-butoxy)carbonyl](methyl)amino}acetyl)-1,3-dioxo-2,3-dihydro-1H-inden-5-yl]ethynyl}-1,3-dioxo-2,3-dihydro-1H-inden-2-yl)-2-oxoethyl]-N-methylcarbamate] has an inhibition at 1 µM of 12% and an inhibition at 3 µM of 26%.

In the case of `O=C(c1ccc2c(c1)C(=O)C(C(=O)Nc1cccc(Cl)c1)C2=O)c1ccc2c(c1)C(=O)C(C(=O)Nc1cccc(Cl)c1)C2=O` (stereo not drawn) [Example 79, N-(3-chlorophenyl)-5-{2-[(3-chlorophenyl)carbamoyl]-1,3-dioxo-2,3-dihydro-1H-indene-5-carbonyl}-1,3-dioxo-2,3-dihydro-1H-indene-2-carboxamide], the IC50 is reported as 1 µM.

With `COCCOCCNCC(=O)C1C(=O)c2ccc(Oc3ccc4c(c3)C(=O)C(C(=O)CNCCOCCOC)C4=O)cc2C1=O` (stereo not drawn) [Example 394, 2-(2-{[2-(2-methoxyethoxy)ethyl]amino}acetyl)-5-{[2-(2-{[2-(2-methoxyethoxy)ethyl]amino}acetyl)-1,3-dioxo-2,3-dihydro-1H-inden-5-yl]oxy}-2,3-dihydro-1H-indene-1,3-dione] the inhibition at 1 µM was 2% and the inhibition at 3 µM was 5%.

In the case of `CC(C)(C)OCC(=O)C1C(=O)c2ccc(S(=O)(=O)c3ccc4c(c3)C(=O)C(C(=O)COC(C)(C)C)C4=O)cc2C1=O` (stereo not drawn) [Example 231, 2-[2-(tert-butoxy)acetyl]-5-({2-[2-(tert-butoxy)acetyl]-1,3-dioxo-2,3-dihydro-1H-inden-5-yl}sulfonyl)-2,3-dihydro-1H-indene-1,3-dione], the inhibition at 1 µM is reported as 69%, the inhibition at 3 µM is reported as 65% and the IC50 is reported as 1.71 µM.

Compound `O=C(NCCc1ccc(F)cc1)C1C(=O)c2ccc(S(=O)(=O)c3ccc4c(c3)C(=O)C(C(=O)NCCc3ccc(F)cc3)C4=O)cc2C1=O` (stereo not drawn) [Example 83, N-[2-(4-fluorophenyl)ethyl]-5-[(2-{[2-(4-fluorophenyl)ethyl]carbamoyl}-1,3-dioxo-2,3-dihydro-1H-inden-5-yl)sulfonyl]-1,3-dioxo-2,3-dihydro-1H-indene-2-carboxamide] has an IC50 of 2.3 µM.

Work on `C[C@@H]1CC[C@@H](C(=O)C2C(=O)c3ccc(-c4ccc5c(c4)C(=O)C(C(=O)[C@@H]4CC[C@@H](C)N4C(=O)OC(C)(C)C)C5=O)cc3C2=O)N1C(=O)OC(C)(C)C` (stereo partly drawn) [Example 214, tert-butyl (2S,5R)-2-{2′-[(2S,5R)-1-[(tert-butoxy)carbonyl]-5-methylpyrrolidine-2-carbonyl]-1,1′,3,3′-tetraoxo-1H,1′H,2H,2′H,3H,3′H-[5,5′-biindene]-2-carbonyl}-5-methylpyrrolidine-1-carboxylate] yielded an IC50 of 4 µM.

For `O=C(Nc1ccc(I)cc1)C1C(=O)c2ccc(S(=O)(=O)c3ccc4c(c3)C(=O)C(C(=O)Nc3ccc(I)cc3)C4=O)cc2C1=O` (stereo not drawn) [Example 95, N-(4-iodophenyl)-5-({2-[(4-iodophenyl)carbamoyl]-1,3-dioxo-2,3-dihydro-1H-inden-5-yl}sulfonyl)-1,3-dioxo-2,3-dihydro-1H-indene-2-carboxamide], the inhibition at 5 µM was 33% and the inhibition at 10 µM was 69%.

`O=C(c1ccc2c(c1)C(=O)C(C(=O)[C@@H]1C[C@H]1C(=O)O)C2=O)c1ccc2c(c1)C(=O)C(C(=O)[C@@H]1C[C@H]1C(=O)O)C2=O` (stereo in doubt) [Example 222, (1R,2R)-2-(5-{2-[(1R,2R)-2-carboxycyclopropanecarbonyl]-1,3-dioxo-2,3-dihydro-1H-indene-5-carbonyl}-1,3-dioxo-2,3-dihydro-1H-indene-2-carbonyl)cyclopropane-1-carboxylic acid] showed an inhibition at 5 µM of 94%, an inhibition at 10 µM of 97% and an IC50 of 1.4 µM.

`CO[C@@H](C(=O)C1C(=O)c2ccc(C(=O)c3ccc4c(c3)C(=O)C(C(=O)[C@H](OC)c3ccccc3)C4=O)cc2C1=O)c1ccccc1` (stereo partly drawn) [Example 119, 2-[(2R)-2-methoxy-2-phenylacetyl]-5-{2-[(2R)-2-methoxy-2-phenylacetyl]-1,3-dioxo-2,3-dihydro-1H-indene-5-carbonyl}-2,3-dihydro-1H-indene-1,3-dione] was tested, and the inhibition at 5 µM was 83%, the inhibition at 10 µM was 90% and the IC50 was 4 µM.

`CC(C)(C)OC(=O)N1CCC[C@H]1C(=O)C1C(=O)c2ccc(-c3ccc4c(c3)C(=O)C(C(=O)[C@@H]3CCCN3C(=O)OC(C)(C)C)C4=O)cc2C1=O` (stereo partly drawn) [Example 209, tert-butyl (2S)-2-{2′-[(2S)-1-[(tert-butoxy)carbonyl]pyrrolidine-2-carbonyl]-1,1′,3,3′-tetraoxo-1H,1′H,2H,2′H,3H,3′H-[5,5′-biindene]-2-carbonyl}pyrrolidine-1-carboxylate] was tested, and the inhibition at 5 µM was 75%, the inhibition at 10 µM was 96% and the IC50 was 4.2 µM.

Work on `COCCOCC(=O)C1C(=O)c2ccc(Oc3ccc4c(c3)C(=O)C(C(=O)COCCOC)C4=O)cc2C1=O` (stereo not drawn) [Example 396, 2-[2-(2-methoxyethoxy)acetyl]-5-({2-[2-(2-methoxyethoxy)acetyl]-1,3-dioxo-2,3-dihydro-1H-inden-5-yl}oxy)-2,3-dihydro-1H-indene-1,3-dione] yielded an inhibition at 1 µM of 14% and an inhibition at 3 µM of 17%.

For `O=C(CSc1ccncc1)C1C(=O)c2ccc(S(=O)(=O)c3ccc4c(c3)C(=O)C(C(=O)CSc3ccncc3)C4=O)cc2C1=O` (stereo not drawn) [Example 290, 5-({1,3-dioxo-2-[2-(pyridin-4-ylsulfanyl)acetyl]-2,3-dihydro-1H-inden-5-yl}sulfonyl)-2-[2-(pyridin-4-ylsulfanyl)acetyl]-2,3-dihydro-1H-indene-1,3-dione], the inhibition at 1 µM was 39% and the inhibition at 3 µM was 51%.

With `O=C(c1ccc2c(c1)C(=O)C(C(=S)NC1CC1)C2=O)c1ccc2c(c1)C(=O)C(C(=S)NC1CC1)C2=O` (stereo not drawn) [Example 328, N-cyclopropyl-5-[2-(cyclopropylcarbamothioyl)-1,3-dioxo-2,3-dihydro-1H-indene-5-carbonyl]-1,3-dioxo-2,3-dihydro-1H-indene-2-carbothioamide] the inhibition at 1 µM was 16% and the inhibition at 3 µM was 26%.

Compound `CC(=O)OC[C@H]1O[C@@H](OC(C)=O)[C@H](NC(=O)C2C(=O)c3ccc(C(=O)c4ccc5c(c4)C(=O)C(C(=O)N[C@H]4[C@H](OC(C)=O)O[C@H](COC(C)=O)[C@@H](OC(C)=O)[C@@H]4OC(C)=O)C5=O)cc3C2=O)[C@@H](OC(C)=O)[C@@H]1OC(C)=O` (stereo partly drawn) [Example 398, [(2R,3S,4R,5R,6S)-3,4,6-tris(acetyloxy)-5-[5-(1,3-dioxo-2-{[(2S,3R,4R,5S,6R)-2,4,5-tris(acetyloxy)-6-[(acetyloxy)methyl]oxan-3-yl]carbamoyl}-2,3-dihydro-1H-indene-5-carbonyl)-1,3-dioxo-2,3-dihydro-1H-indene-2-amido]oxan-2-yl]methyl acetate] has an inhibition at 1 µM of 6% and an inhibition at 3 µM of 23%.

Work on `CC(C)(C)OC(=O)N1CC[C@H]1C(=O)C1C(=O)c2ccc(C(=O)c3ccc4c(c3)C(=O)C(C(=O)[C@@H]3CCN3C(=O)OC(C)(C)C)C4=O)cc2C1=O` (stereo partly drawn) [Example 115, tert-butyl (2S)-2-(5-{2-[(2S)-1-[(tert-butoxy)carbonyl]azetidine-2-carbonyl]-1,3-dioxo-2,3-dihydro-1H-indene-5-carbonyl}-1,3-dioxo-2,3-dihydro-1H-indene-2-carbonyl)azetidine-1-carboxylate] yielded an IC50 of 3.3 µM.

In the case of `COCCOCCNCC(=O)C1C(=O)c2ccc(C(=O)c3ccc4c(c3)C(=O)C(C(=O)CNCCOCCOC)C4=O)cc2C1=O` (stereo not drawn) [Example 393, 2-(2-{[2-(2-methoxyethoxy)ethyl]amino}acetyl)-5-[2-(2-{[2-(2-methoxyethoxy)ethyl]amino}acetyl)-1,3-dioxo-2,3-dihydro-1H-indene-5-carbonyl]-2,3-dihydro-1H-indene-1,3-dione], the inhibition at 1 µM is reported as 1% and the inhibition at 3 µM is reported as 4%.

Compound `CC(C)(C)OC(=O)N1CC=C[C@H]1C(=O)C1C(=O)c2ccc(C(=O)c3ccc4c(c3)C(=O)C(C(=O)[C@@H]3C=CCN3C(=O)OC(C)(C)C)C4=O)cc2C1=O` (stereo partly drawn) [Example 122, tert-butyl (2S)-2-(5-{2-[(2S)-1-[(tert-butoxy)carbonyl]-2,5-dihydro-1H-pyrrole-2-carbonyl]-1,3-dioxo-2,3-dihydro-1H-indene-5-carbonyl}-1,3-dioxo-2,3-dihydro-1H-indene-2-carbonyl)-2,5-dihydro-1H-pyrrole-1-carboxylate] has an IC50 of about 3 µM.

Compound `O=C(c1ccc2c(c1)C(=O)C(C(=O)[C@@H]1CCN1)C2=O)c1ccc2c(c1)C(=O)C(C(=O)[C@@H]1CCN1)C2=O` (stereo partly drawn) [Example 116, 2-[(2S)-azetidine-2-carbonyl]-5-{2-[(2S)-azetidine-2-carbonyl]-1,3-dioxo-2,3-dihydro-1H-indene-5-carbonyl}-2,3-dihydro-1H-indene-1,3-dione] has an inhibition at 5 µM of 13% and an inhibition at 10 µM of 21%.

Work on `CC(C)(C)OC(=O)NCC(=O)C1C(=O)c2ccc(Oc3ccc4c(c3)C(=O)C(C(=O)CNC(=O)OC(C)(C)C)C4=O)cc2C1=O` (stereo not drawn) [Example 272, tert-butyl N-[2-(5-{[2-(2-{[(tert-butoxy)carbonyl]amino}acetyl)-1,3-dioxo-2,3-dihydro-1H-inden-5-yl]oxy}-1,3-dioxo-2,3-dihydro-1H-inden-2-yl)-2-oxoethyl]carbamate] yielded an inhibition at 1 µM of 26% and an inhibition at 3 µM of 56%.

From US20250281424A1 (New York Blood Center, Inc, priority 2020, published 2025)
